Measured values from ChEMBL document CHEMBL1154275, “Synthesis and biological evaluation of new heterocyclic quinolinones as anti-parasite and anti-HIV drug candidates” (Bioorg Med Chem Lett, 2009).

Experiments:
[1] = system: Human immunodeficiency virus 1; test: Antiviral activity against HIV1 3B infected in human MT4 cells after 4 days by MTT assay; assay type: functional, organism-based
[2] = system: Human immunodeficiency virus 2; test: Antiviral activity against HIV2 ROD infected in human MT4 cells after 4 days by MTT assay; assay type: functional, organism-based, ISOLATE ROD
[3] = (§1) Cytotoxicity against human MT4 cells after 4 days by MTT assay; assay type: cell-based; settings: MT4 cells
[4] = system: Plasmodium falciparum; test: Antimalarial activity against chloroquine, pyrimethamine, proguanil-resistant Plasmodium falciparum infected in human erythrocytes after 48 hrs by flow cytometry; assay type: functional, organism-based
[5] = system: THP-1; test: Cytotoxicity against human THP1 cells after 72 hrs by propidium iodide staining-based flow cytometry; assay type: cell-based
[6] = system: Leishmania donovani; test: Antileishmanial activity against Leishmania donovani MHOM/IN/78/80/DD8 promastigote by alamar blue method; assay type: functional, organism-based
[7] = system: Leishmania donovani; test: Antileishmanial activity against Leishmania donovani MHOM/IN/78/80/DD8 amastigote by alamar blue method; assay type: functional, organism-based
[8] = system: Trichomonas vaginalis; test: Antitrichomonal activity against Trichomonas vaginalis TVR79 after 48 hrs by optical microscopy; assay type: functional, organism-based
[9] = Selectivity index, ratio of IC50 for human THP1 cells to IC50 for Plasmodium falciparum; assay type: toxicity, cell-based, THP-1
[10] = system: MT4; test: as §1; assay type: cell-based; settings: mt4, 96 h
[11] = Human immunodeficiency virus 1, 3B, MT4, 96 h, read-out: EC50
[12] = Human immunodeficiency virus 2, ISOLATE ROD, MT4, 96 h, read-out: EC50
[13] = Plasmodium falciparum, 48 h, read-out: IC50
[14] = Homo sapiens, THP-1, 72 h, read-out: IC50
[15] = Leishmania donovani, MHOM/IN/78/80/DD8, read-out: IC50
[16] = Trichomonas vaginalis, TVR79, 48 h, read-out: IC50

Compound	EC50 [1, 11]	EC50 [2, 12]	CC50 at 96 h [3]	IC50 [4, 13]	IC50 [5, 14]	IC50 [6, 15]	IC50 [7, 15]	IC50 [8, 16]	selectivity index ([9]; human, THP-1 cells)	selectivity index ([9]; thp-1)	EC50 ([1]; mt4)	EC50 ([2]; mt4)	CC50 [10]	IC50 [4]	IC50 ([5]; thp-1)	IC50 [6]	IC50 [7]	IC50 [8]
Nc1ccc2[nH]ccc(=O)c2c1	> 631 µM	≥ 501 µM	≥ 631 µM	90 µM	> 500 µM	> 200 µM	> 200 µM	> 200 µM	> 5.5									
O=c1cc[nH]c2ccc([N+](=O)[O-])cc12	> 356 µM	> 356 µM	> 356 µM	52 µM	130 µM	> 200 µM	> 200 µM	> 200 µM	2.5									
CC1(C)OC(=O)C(=CNc2ccc3[nH]c(=O)[nH]c3c2)C(=O)O1	> 412 µM	> 412 µM	> 412 µM	> 500 µM	> 500 µM	> 200 µM	> 200 µM	> 200 µM		Not Active								
Cc1nc2ccc(NC=C3C(=O)OC(C)(C)OC3=O)cc2s1	> 317 µM	> 317 µM	> 317 µM	60 µM	> 250 µM	> 250 µM	> 200 µM	> 100 µM	> 4.1									
Cc1nc2ccc3[nH]ccc(=O)c3c2s1	> 405 µM	> 405 µM	> 405 µM		> 500 µM	> 200 µM	> 200 µM	> 200 µM										
Cc1ncc([N+](=O)[O-])n1CCO [METRONIDAZOLE]					> 500 µM			2.7 µM										
CC1(C)OC(=O)C(=CNc2ccc3c(c2)OCO3)C(=O)O1	≥ 118 µM	> 430 µM	> 430 µM	10 µM	250 µM	> 100 µM	20 µM	> 100 µM	25									
CC1(C)OC(=O)C(=CNc2ccccc2-c2nc3ccccc3s2)C(=O)O1	> 41.6 µM	> 41.6 µM	41.6 µM	> 250 µM	> 250 µM	> 250 µM	> 100 µM	> 250 µM		Not Active								
CC1(C)OC(=O)C(=CNc2ccc3cn[nH]c3c2)C(=O)O1	> 436 µM	> 436 µM	> 436 µM	> 250 µM	> 250 µM	> 100 µM	> 100 µM	> 100 µM		Not Active								
C[C@H]1c2cccc(O)c2C(=O)C2=C(O)[C@]3(O)C(=O)C(C(N)=O)=C(O)[C@@H](N(C)C)[C@@H]3[C@@H](O)[C@@H]21 [DOXYCYCLINE]					20 µM				3.1									
CC1(C)OC(=O)C(=CNc2ccccc2[N+](=O)[O-])C(=O)O1	> 411 µM	≥ 260 µM	≥ 411 µM	> 500 µM	> 500 µM	> 200 µM	> 200 µM	> 200 µM		Not Active								
CC1(C)OC(=O)C(=CNc2cccc([N+](=O)[O-])c2)C(=O)O1	> 251 µM	> 251 µM	> 251 µM	60 µM	> 250 µM	> 100 µM	> 100 µM	> 100 µM	> 4.1									
C[C@@H]1[C@H](O)[C@@H](C)/C=C/C=C/C=C/C=C/C=C/C=C/C=C/[C@H](O[C@@H]2O[C@H](C)[C@@H](O)[C@H](N)[C@@H]2O)C[C@@H]2O[C@](O)(C[C@@H](O)C[C@@H](O)[C@H](O)CC[C@@H](O)C[C@@H](O)CC(=O)O[C@H]1C)C[C@H](O)[C@H]2C(=O)O [AMPHOTERICIN B]							0.1 µM											
CC1(C)OC(=O)C(=CNc2ccc3ncsc3c2)C(=O)O1	> 39.1 µM	> 39.1 µM	> 39.1 µM	60 µM	> 500 µM	> 200 µM	40 µM	> 200 µM	> 8.3									
CCOC(=O)C(=CNc1ccc([N+](=O)[O-])cc1)C(=O)OCC	≥ 198 µM	≥ 121 µM	≥ 250 µM	> 250 µM	> 125 µM	> 250 µM	> 100 µM	> 125 µM		Not Active								
O=c1cc[nH]c2cc3c(cc12)OCCO3	> 356 µM	> 356 µM	> 356 µM	50 µM	115 µM	> 200 µM	> 200 µM	> 200 µM	2.3									
CN(C)c1nc2ccc(NC=C3C(=O)OC(C)(C)OC3=O)cc2o1	> 378 µM	> 378 µM	> 378 µM	40 µM	> 250 µM	> 100 µM	> 100 µM	> 100 µM	> 6.25									
CN(C)c1nc2cc3[nH]ccc(=O)c3cc2o1	> 324 µM	> 324 µM	> 324 µM	40 µM	> 125 µM	> 250 µM	> 100 µM	> 125 µM	> 3.1									
CC1(C)OC(=O)C(CNc2ccc3c(c2)CCC3)C(=O)O1	> 292 µM	> 292 µM	> 292 µM	> 500 µM	> 500 µM	> 200 µM	> 200 µM	> 200 µM		Not Active								
O=c1cc[nH]c2ccc3[nH]ncc3c12										ND(Insoluble)	ND(Insoluble)	ND(Insoluble)	ND(Insoluble)	ND(Insoluble)	ND(Insoluble)	ND(Insoluble)	ND(Insoluble)	ND(Insoluble)
O=c1cc[nH]c2c([N+](=O)[O-])cccc12	> 71.6 µM	> 71.6 µM	> 71.6 µM	> 500 µM	> 500 µM	> 200 µM	> 200 µM	> 200 µM		Not Active								
O=c1cc[nH]c2ccc3ncsc3c12										ND(Insoluble)	ND(Insoluble)	ND(Insoluble)	ND(Insoluble)	ND(Insoluble)	ND(Insoluble)	ND(Insoluble)	ND(Insoluble)	ND(Insoluble)
O=c1cc[nH]c2c(-c3nc4ccccc4s3)cccc12	> 8.6 µM	≥ 1.4 µM	8.6 µM	> 500 µM	> 500 µM	> 200 µM	> 200 µM	> 200 µM		Not Active								
CC1(C)OC(=O)C(=CNc2cccc(-c3nc4ccccc4s3)c2)C(=O)O1	> 190 µM	> 190 µM	> 190 µM	30 µM	115 µM	> 200 µM	> 200 µM	> 200 µM	4									
CC1(C)OC(=O)C(=CNc2ccc3c(c2)OCCO3)C(=O)O1	> 428 µM	> 428 µM	> 428 µM	> 500 µM	> 500 µM	> 200 µM	> 200 µM	> 200 µM		Not Active								
Cc1nc2ccc3c(c(=O)ccn3C)c2s1	> 341 µM	> 341 µM	> 341 µM	> 250 µM	115 µM	> 100 µM	> 100 µM	> 100 µM		Not Active								
CC1(C)OC(=O)C(=CNc2ccc([N+](=O)[O-])cc2)C(=O)O1	> 21.2 µM	> 21.2 µM	> 21.2 µM	40 µM	> 250 µM	> 100 µM	> 100 µM	> 100 µM	> 6.2									
O=c1cc[nH]c2ccc3nn[nH]c3c12										ND(Insoluble)	ND(Insoluble)	ND(Insoluble)	ND(Insoluble)	ND(Insoluble)	ND(Insoluble)	ND(Insoluble)	ND(Insoluble)	ND(Insoluble)
CC1(C)OC(=O)C(=CNc2ccc3[nH]nnc3c2)C(=O)O1	> 68.1 µM	> 68.1 µM	> 68.1 µM	> 500 µM	> 500 µM	> 200 µM	> 200 µM	> 200 µM		Not Active								
